Where “and” joins values, the source holds several entries; their conditions need not be identical. Identical values can stand only once. Toxic doses and inconclusive results are not listed. No stated cut-off is given here; in the data, active means T/C of 150% or more; inactive means T/C below 125%.
Test system: L1210 leukemia ip in BDF1 mice, survival T/C
Experiment: NCI In Vivo Anticancer Drug Screen. Data for tumor model L1210 Leukemia (intraperitoneal) in B6D2F1 (BDF1) mice
Conditions: endpoint: mean survival time, higher = longer survival
Summary of the method: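 Tumor was transplanted into mice, which were then dosed with test compound or vehicle alone. Survival was recorded for each group, and the treated figure was expressed relative to the control figure.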

[1] = dose: 100.0 mg/kg/injection, schedule: Q04DX003 (ip), vehicle: Klucel (hydroxypropylcellulose) (HPC)
[2] = dose: 200.0 mg/kg/injection, schedule: Q04DX003 (ip), vehicle: Klucel (hydroxypropylcellulose) (HPC)
[3] = dose: 400.0 mg/kg/injection, schedule: Q04DX003 (ip), vehicle: Klucel (hydroxypropylcellulose) (HPC)
[4] = dose: 100.0 mg/kg/injection, schedule: Q01DX001 (ip), vehicle: carboxymethylcellulose (CMC)
[5] = dose: 200.0 mg/kg/injection, schedule: Q01DX001 (ip), vehicle: carboxymethylcellulose (CMC)
[6] = dose: 400.0 mg/kg/injection, schedule: Q01DX001 (ip), vehicle: carboxymethylcellulose (CMC)
[7] = dose: 100.0 mg/kg/injection, schedule: Q04DX003 (ip), vehicle: saline
[8] = dose: 200.0 mg/kg/injection, schedule: Q04DX003 (ip), vehicle: saline
[9] = dose: 400.0 mg/kg/injection, schedule: Q04DX003 (ip), vehicle: saline
[10] = dose: 100.0 mg/kg/injection, schedule: Q04DX002 (ip), vehicle: Klucel (hydroxypropylcellulose) (HPC)
[11] = dose: 200.0 mg/kg/injection, schedule: Q04DX002 (ip), vehicle: Klucel (hydroxypropylcellulose) (HPC)
[12] = dose: 400.0 mg/kg/injection, schedule: Q04DX002 (ip), vehicle: Klucel (hydroxypropylcellulose) (HPC)
[13] = dose: 100.0 mg/kg/injection, schedule: Q04DX003 (ip), vehicle: saline with Tween-80
[14] = dose: 200.0 mg/kg/injection, schedule: Q04DX003 (ip), vehicle: saline with Tween-80
[15] = dose: 400.0 mg/kg/injection, schedule: Q04DX003 (ip), vehicle: saline with Tween-80
[16] = dose: 50.0 mg/kg/injection, schedule: Q01DX009 (ip), vehicle: Klucel (hydroxypropylcellulose) (HPC)
[17] = dose: 100.0 mg/kg/injection, schedule: Q01DX001 (ip), vehicle: Klucel (hydroxypropylcellulose) (HPC)
[18] = dose: 100.0 mg/kg/injection, schedule: Q01DX009 (ip), vehicle: Klucel (hydroxypropylcellulose) (HPC)
[19] = dose: 200.0 mg/kg/injection, schedule: Q01DX001 (ip), vehicle: Klucel (hydroxypropylcellulose) (HPC)
[20] = dose: 200.0 mg/kg/injection, schedule: Q01DX009 (ip), vehicle: Klucel (hydroxypropylcellulose) (HPC)
[21] = dose: 400.0 mg/kg/injection, schedule: Q01DX001 (ip), vehicle: Klucel (hydroxypropylcellulose) (HPC)
[22] = dose: 400.0 mg/kg/injection, schedule: Q01DX009 (ip), vehicle: Klucel (hydroxypropylcellulose) (HPC)

Measured: T/C

O=[N+]([O-])c1ccc(OCc2ccc(S(=O)(=O)F)cc2)c(Cl)c1
inactive: dose: 100.0 mg/kg/injection, schedule: Q04DX003 (ip), vehicle: other 97 % of control | dose: 200.0 mg/kg/injection, schedule: Q04DX003 (ip), vehicle: other 97 % of control | dose: 400.0 mg/kg/injection, schedule: Q04DX003 (ip), vehicle: other 92 % of control

O=[N+]([O-])c1cc([N+](=O)[O-])c(Cl)cc1Cl
inactive: dose: 3.13 mg/kg/injection, schedule: Q01DX009 (ip), vehicle: Klucel (hydroxypropylcellulose) (HPC) 101 % of control | dose: 6.25 mg/kg/injection, schedule: Q01DX009 (ip), vehicle: Klucel (hydroxypropylcellulose) (HPC) 106 % of control | dose: 12.5 mg/kg/injection, schedule: Q01DX009 (ip), vehicle: Klucel (hydroxypropylcellulose) (HPC) 106 % of control | [1] 96 % of control | [2] 89 % of control

ClCCCN1Cc2ccccc2CCc2ccccc2C1
inactive: [1] 102 % of control | [2] 100 % of control | [3] 107 % of control

c1ccc(NC2C(=C(c3ccccc3)c3ccccc3)N3CCC2CC3)cc1 (configuration not stated)
inactive: [1] 95 % of control | [2] 94 % of control | [3] 95 % of control

O=C(N/N=C/c1ccc(O)cc1O)C(O)(c1ccccc1)c1ccccc1
inactive: [4] 106 % of control | [5] 106 % of control | [6] 108 % of control

Cc1csc(C)[n+]1[O-]
inactive: [7] 102 % of control | [8] 101 % of control | [9] 98 % of control

Cc1ccc(S/C=C/Sc2ccc(C)cc2)cc1
inactive: [10] 99 % of control | [11] 99 % of control | [12] 99 % of control

O=C(O)c1ccc(O)cn1
inactive: [4] 93 % of control | [5] 95 % of control | [6] 95 % of control

CC(C)(C)NCCC(=O)c1ccccc1
inactive: dose: 12.5 mg/kg/injection, schedule: Q04DX003 (ip), vehicle: saline 98 % of control | dose: 25.0 mg/kg/injection, schedule: Q04DX003 (ip), vehicle: saline 102 % of control | dose: 50.0 mg/kg/injection, schedule: Q04DX003 (ip), vehicle: saline 101 % of control

COc1ccc(NC(=O)Nc2ccccc2OC)cc1
inactive: dose: 100.0 mg/kg/injection, schedule: Q01DX009 (ip), vehicle: saline with Tween-80 98 % of control | [13] 105 % of control | dose: 200.0 mg/kg/injection, schedule: Q01DX009 (ip), vehicle: saline with Tween-80 101 % of control | [14] 97 % of control | dose: 400.0 mg/kg/injection, schedule: Q01DX009 (ip), vehicle: saline with Tween-80 98 % of control | [15] 103 % of control

O=C(c1cc(C(F)(F)F)cc(C(F)(F)F)c1)N1CC1
inactive: dose: 6.25 mg/kg/injection, schedule: Q01DX009 (ip), vehicle: water 96 % of control | dose: 12.5 mg/kg/injection, schedule: Q01DX009 (ip), vehicle: water 91 % of control | dose: 25.0 mg/kg/injection, schedule: Q01DX009 (ip), vehicle: water 95 % of control | dose: 50.0 mg/kg/injection, schedule: Q01DX009 (ip), vehicle: water 93 % of control and 86 % of control | dose: 100.0 mg/kg/injection, schedule: Q01DX009 (ip), vehicle: water 88 % of control | dose: 200.0 mg/kg/injection, schedule: Q01DX009 (ip), vehicle: water 95 % of control and 89 % of control | dose: 400.0 mg/kg/injection, schedule: Q01DX009 (ip), vehicle: water 86 % of control

CC1c2ccccc2N(S(=O)(=O)c2ccccc2)C1C (configuration not stated)
inactive: dose: 100.0 mg/kg/injection, schedule: Q01DX009 (ip), vehicle: gum acacia 108 % of control | dose: 100.0 mg/kg/injection, schedule: Q04DX003 (ip), vehicle: gum acacia 96 % of control | dose: 200.0 mg/kg/injection, schedule: Q01DX009 (ip), vehicle: gum acacia 104 % of control | dose: 200.0 mg/kg/injection, schedule: Q04DX003 (ip), vehicle: gum acacia 102 % of control | dose: 400.0 mg/kg/injection, schedule: Q01DX009 (ip), vehicle: gum acacia 93 % of control | dose: 400.0 mg/kg/injection, schedule: Q04DX003 (ip), vehicle: gum acacia 96 % of control

CCC(CC)COC(=O)CI
inactive: dose: 5.0 mg/kg/injection, schedule: Q01DX001 (ip), vehicle: saline 100 % of control | dose: 10.0 mg/kg/injection, schedule: Q01DX001 (ip), vehicle: saline 100 % of control | dose: 20.0 mg/kg/injection, schedule: Q01DX001 (ip), vehicle: saline 100 % of control | dose: 40.0 mg/kg/injection, schedule: Q01DX001 (ip), vehicle: saline 100 % of control | dose: 80.0 mg/kg/injection, schedule: Q01DX001 (ip), vehicle: saline 100 % of control

Cc1c(C)c(O)c(SC(CC(=O)O)C(=O)O)c(C)c1O (configuration not stated)
inactive: [10] 100 % of control | [1] 103 % of control | [11] 103 % of control | [2] 103 % of control | [12] 97 % of control | [3] 90 % of control

CCCCOC(c1ccc2c(c1)OCO2)C(C)Br (configuration not stated)
inactive: [13] 94 % of control | [14] 94 % of control | [15] 97 % of control

O=C(O)C1CC2(CCC1c1ccccc1)SCCS2 (configuration not stated)
inactive: [16] 95 % of control | [17] 97 % of control | [18] 93 % of control | [19] 100 % of control | [20] 96 % of control | [21] 96 % of control

CCCCCCCCCCCCCCCCC(C(=O)OCC)C(=O)c1ccccc1 (configuration not stated)
inactive: [13] 95 % of control | [14] 95 % of control | [15] 91 % of control

CC(=O)Nc1ccc(NC(=O)NCCCCCCNC(=O)Nc2ccc(NC(C)=O)cc2)cc1
inactive: [18] 102 % of control | [20] 98 % of control | [22] 100 % of control

CS(=N)(=O)c1ccccc1 (configuration not stated)
inactive: dose: 100.0 mg/kg/injection, schedule: Q01DX009 (ip), vehicle: other 99 % of control | [7] 97 % of control | dose: 200.0 mg/kg/injection, schedule: Q01DX009 (ip), vehicle: other 95 % of control | [8] 100 % of control | dose: 400.0 mg/kg/injection, schedule: Q01DX009 (ip), vehicle: other 97 % of control | [9] 97 % of control

Clc1ccc(SCC#CCOc2ccc(Cl)cc2Cl)cc1
inactive: [17] 89 % of control | [19] 95 % of control | [21] 97 % of control

CCCc1cc(C)cc2nc(-c3ccccc3)oc12
inactive: [13] 101 % of control | [14] 95 % of control | [15] 89 % of control

COC(=O)NS(=O)(=O)Nc1ccccc1
inactive: dose: 100.0 mg/kg/injection, schedule: Q04DX002 (ip), vehicle: saline with Tween-80 97 % of control | dose: 200.0 mg/kg/injection, schedule: Q04DX002 (ip), vehicle: saline with Tween-80 87 % of control | dose: 400.0 mg/kg/injection, schedule: Q04DX002 (ip), vehicle: saline with Tween-80 94 % of control

Cc1cc(OCC(N)=O)ccc1Cl
inactive: [10] 103 % of control | [11] 92 % of control | [12] 98 % of control

O=S1(=O)C2C=CCC1C(O)CC2 (configuration not stated)
inactive: dose: 100.0 mg/kg/injection, schedule: Q01DX009 (ip), vehicle: saline 101 % of control | dose: 200.0 mg/kg/injection, schedule: Q01DX009 (ip), vehicle: saline 99 % of control | dose: 400.0 mg/kg/injection, schedule: Q01DX009 (ip), vehicle: saline 101 % of control

CSc1ccc(OC(=O)Nc2ccc(Cl)cc2Cl)cc1C
inactive: [18] 95 % of control | [20] 98 % of control | [22] 95 % of control

Cc1ccc(NC(=O)OCCOc2ccc(Cl)cc2)c([N+](=O)[O-])c1
inactive: [16] 97 % of control | [18] 87 % of control | [1] 99 % of control | [20] 90 % of control | [2] 104 % of control | [3] 90 % of control

NC(=O)C1C2C=CC(C2)C1C(N)=O (configuration not stated)
inactive: [13] 96 % of control | [14] 91 % of control | [15] 98 % of control

Reference: PubChem BioAssay AID248 (DTP/NCI, 2004)
